# According to ChEMBL document CHEMBL5380790 (J Med Chem, 2023):
# Active and inactive are the calls of the source. The rule behind the calls is not given here.
# How the values were obtained:
# [1] = Metabolic stability in human liver microsomes assessed as intrinsic clearance in presence of NADPH by UPLC analysis; format: ADME, Microsome; details: read-out: CLH
# [2] = Kinetic solubility of compound in PBS buffer at pH 7.4 and measured after 2 hrs by HPLC-UV analysis; format: physicochemical; details: read-out: Kinetic_solubility
# [3] = Metabolic stability in mouse liver microsomes assessed as intrinsic clearance in presence of NADPH by UPLC analysis; format: ADME, Microsome; details: read-out: CLH
# [4] = target: Mast/stem cell growth factor receptor Kit (Homo sapiens, UniProt P10721, DELTA560/V654A); format: cell-based, GIST-430/654
# Mast/stem cell growth factor receptor Kit (Homo sapiens, UniProt P10721, DELTA560/V654A), sequence (P10721 whole entry, looked up, stated change not applied): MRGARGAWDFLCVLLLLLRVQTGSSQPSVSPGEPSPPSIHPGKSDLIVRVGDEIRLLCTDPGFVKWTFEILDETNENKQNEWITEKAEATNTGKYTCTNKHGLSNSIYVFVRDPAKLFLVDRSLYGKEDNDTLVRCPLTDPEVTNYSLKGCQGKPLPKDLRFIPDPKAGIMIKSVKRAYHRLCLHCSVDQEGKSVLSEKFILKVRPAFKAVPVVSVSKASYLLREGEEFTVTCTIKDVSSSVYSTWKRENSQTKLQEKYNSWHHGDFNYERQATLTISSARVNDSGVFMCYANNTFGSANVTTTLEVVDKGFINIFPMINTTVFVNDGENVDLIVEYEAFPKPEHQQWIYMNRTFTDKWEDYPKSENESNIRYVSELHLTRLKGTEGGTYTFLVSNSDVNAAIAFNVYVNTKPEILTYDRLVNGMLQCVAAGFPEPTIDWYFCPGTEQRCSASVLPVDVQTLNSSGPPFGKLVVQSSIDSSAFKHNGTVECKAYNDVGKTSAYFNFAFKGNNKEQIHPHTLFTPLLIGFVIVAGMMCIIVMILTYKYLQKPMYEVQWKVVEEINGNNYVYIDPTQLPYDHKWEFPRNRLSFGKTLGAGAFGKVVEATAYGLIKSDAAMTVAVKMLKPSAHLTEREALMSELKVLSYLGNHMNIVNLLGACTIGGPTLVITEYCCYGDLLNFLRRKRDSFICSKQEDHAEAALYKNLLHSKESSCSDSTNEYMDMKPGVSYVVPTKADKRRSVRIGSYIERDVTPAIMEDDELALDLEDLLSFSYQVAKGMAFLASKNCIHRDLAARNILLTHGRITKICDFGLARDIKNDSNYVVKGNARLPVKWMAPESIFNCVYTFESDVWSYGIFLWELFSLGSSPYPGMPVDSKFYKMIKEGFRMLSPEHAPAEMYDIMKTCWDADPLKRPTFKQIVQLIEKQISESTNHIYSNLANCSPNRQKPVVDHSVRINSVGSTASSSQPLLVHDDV
# [5] = Octanol-water distribution coefficient, logD of the compound at pH 7.4; format: physicochemical
# [6] = Metabolic stability in human hepatocytes assessed as intrinsic clearance measured per million cells; format: ADME, cell-based, Hepatocyte; details: read-out: CLH
# [7] = Solubility of compound in FaSSIF at pH 6.5; format: physicochemical
# [8] = target: hERG (KCNH2) potassium channel (Homo sapiens, UniProt Q12809); experiment: Inhibition of human ERG potassium channel transfected in HEK293 cells at holding potential -80 mV at 10 uM and measured for 5 mins by whole cell patch clamp assay; format: toxicity, cell-based; details: HEK293 cells transfected with hERG
# hERG (KCNH2) potassium channel, sequence (Q12809 whole entry): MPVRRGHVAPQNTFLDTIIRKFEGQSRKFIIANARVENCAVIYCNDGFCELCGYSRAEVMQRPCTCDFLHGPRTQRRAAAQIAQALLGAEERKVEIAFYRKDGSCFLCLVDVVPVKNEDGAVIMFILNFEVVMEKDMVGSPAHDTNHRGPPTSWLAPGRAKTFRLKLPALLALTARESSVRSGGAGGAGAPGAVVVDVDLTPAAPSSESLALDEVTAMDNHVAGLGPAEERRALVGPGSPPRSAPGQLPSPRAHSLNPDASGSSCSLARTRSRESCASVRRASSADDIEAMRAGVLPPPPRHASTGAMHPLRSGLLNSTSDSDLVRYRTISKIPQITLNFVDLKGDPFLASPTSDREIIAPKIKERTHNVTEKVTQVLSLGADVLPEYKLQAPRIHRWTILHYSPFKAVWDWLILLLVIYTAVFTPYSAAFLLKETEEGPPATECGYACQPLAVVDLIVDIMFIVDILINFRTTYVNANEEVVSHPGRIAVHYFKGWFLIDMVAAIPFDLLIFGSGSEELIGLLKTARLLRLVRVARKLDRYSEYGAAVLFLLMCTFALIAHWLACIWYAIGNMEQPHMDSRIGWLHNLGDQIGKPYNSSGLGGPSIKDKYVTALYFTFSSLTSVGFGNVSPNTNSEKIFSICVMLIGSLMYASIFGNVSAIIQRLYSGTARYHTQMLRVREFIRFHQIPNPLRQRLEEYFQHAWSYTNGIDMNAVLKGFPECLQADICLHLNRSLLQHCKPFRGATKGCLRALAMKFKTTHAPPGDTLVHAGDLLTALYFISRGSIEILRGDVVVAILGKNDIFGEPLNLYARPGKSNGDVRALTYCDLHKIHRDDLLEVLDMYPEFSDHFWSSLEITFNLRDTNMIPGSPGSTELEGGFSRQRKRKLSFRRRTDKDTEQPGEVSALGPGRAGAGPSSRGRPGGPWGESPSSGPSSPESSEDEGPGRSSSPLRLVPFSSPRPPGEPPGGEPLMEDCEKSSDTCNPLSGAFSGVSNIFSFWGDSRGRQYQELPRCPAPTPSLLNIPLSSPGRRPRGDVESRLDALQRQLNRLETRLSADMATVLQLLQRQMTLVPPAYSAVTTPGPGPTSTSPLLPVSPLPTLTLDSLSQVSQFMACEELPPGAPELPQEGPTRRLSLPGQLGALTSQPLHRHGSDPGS
# [9] = Efflux ratio of apparent permeability from basolateral to apical side over apical to basolateral side in human Caco-2 cells at 1 uM and measured after 2 hrs by LC-MS/MS analysis; format: ADME, cell-based
# [10] = Dissociation constant, pKa of the compound; format: physicochemical
# [11] = Apparent passive permeability of compound in human Caco-2 cells at 1 uM and measured after 2 hrs by LC-MS/MS analysis; format: ADME, cell-based
# [12] = target: Mast/stem cell growth factor receptor Kit (Homo sapiens, UniProt P10721, V654A); experiment: Inhibition of recombinant human KIT V654A mutant using polyGT and ATP as substrate preincubated for 20 mins followed by substrate addition and measured after 240 mins by FRET assay
# Mast/stem cell growth factor receptor Kit (Homo sapiens, UniProt P10721, V654A), sequence (P10721 26-976 V654A limits assumed): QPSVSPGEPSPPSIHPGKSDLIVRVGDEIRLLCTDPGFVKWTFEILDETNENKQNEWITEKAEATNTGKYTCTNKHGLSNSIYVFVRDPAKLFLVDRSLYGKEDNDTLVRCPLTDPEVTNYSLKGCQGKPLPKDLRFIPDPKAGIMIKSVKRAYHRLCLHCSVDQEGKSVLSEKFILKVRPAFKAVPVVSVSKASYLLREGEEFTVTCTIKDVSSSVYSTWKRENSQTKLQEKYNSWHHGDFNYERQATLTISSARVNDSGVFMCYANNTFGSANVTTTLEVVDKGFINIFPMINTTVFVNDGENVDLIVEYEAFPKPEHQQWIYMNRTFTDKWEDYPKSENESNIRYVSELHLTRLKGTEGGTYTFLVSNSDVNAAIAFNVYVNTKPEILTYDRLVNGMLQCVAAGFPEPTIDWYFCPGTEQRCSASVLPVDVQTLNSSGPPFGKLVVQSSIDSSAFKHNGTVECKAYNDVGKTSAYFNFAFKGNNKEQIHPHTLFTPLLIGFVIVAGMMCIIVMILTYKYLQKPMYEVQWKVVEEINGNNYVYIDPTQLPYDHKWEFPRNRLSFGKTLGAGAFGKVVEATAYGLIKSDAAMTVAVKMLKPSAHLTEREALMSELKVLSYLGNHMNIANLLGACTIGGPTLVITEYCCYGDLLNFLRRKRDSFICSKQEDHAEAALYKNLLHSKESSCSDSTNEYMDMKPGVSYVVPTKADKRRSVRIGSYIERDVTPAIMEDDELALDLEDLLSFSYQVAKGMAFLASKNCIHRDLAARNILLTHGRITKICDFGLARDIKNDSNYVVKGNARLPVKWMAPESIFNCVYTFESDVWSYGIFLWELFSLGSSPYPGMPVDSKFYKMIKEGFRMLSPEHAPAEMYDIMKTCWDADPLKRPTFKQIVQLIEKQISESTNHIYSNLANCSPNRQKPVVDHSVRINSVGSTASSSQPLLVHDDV
# [13] = Solubility of compound in simulated gastric fluid at pH 1.2; format: physicochemical
# [14] = target: Receptor-type tyrosine-protein kinase FLT3 (Homo sapiens) (UniProt P36888); experiment: Inhibition of FLT3 (unknown origin) at 1 uM using 33P-ATP as substrate incubated for 120 mins by radiometric kinase assay
# Receptor-type tyrosine-protein kinase FLT3 (Homo sapiens), sequence (P36888 whole entry): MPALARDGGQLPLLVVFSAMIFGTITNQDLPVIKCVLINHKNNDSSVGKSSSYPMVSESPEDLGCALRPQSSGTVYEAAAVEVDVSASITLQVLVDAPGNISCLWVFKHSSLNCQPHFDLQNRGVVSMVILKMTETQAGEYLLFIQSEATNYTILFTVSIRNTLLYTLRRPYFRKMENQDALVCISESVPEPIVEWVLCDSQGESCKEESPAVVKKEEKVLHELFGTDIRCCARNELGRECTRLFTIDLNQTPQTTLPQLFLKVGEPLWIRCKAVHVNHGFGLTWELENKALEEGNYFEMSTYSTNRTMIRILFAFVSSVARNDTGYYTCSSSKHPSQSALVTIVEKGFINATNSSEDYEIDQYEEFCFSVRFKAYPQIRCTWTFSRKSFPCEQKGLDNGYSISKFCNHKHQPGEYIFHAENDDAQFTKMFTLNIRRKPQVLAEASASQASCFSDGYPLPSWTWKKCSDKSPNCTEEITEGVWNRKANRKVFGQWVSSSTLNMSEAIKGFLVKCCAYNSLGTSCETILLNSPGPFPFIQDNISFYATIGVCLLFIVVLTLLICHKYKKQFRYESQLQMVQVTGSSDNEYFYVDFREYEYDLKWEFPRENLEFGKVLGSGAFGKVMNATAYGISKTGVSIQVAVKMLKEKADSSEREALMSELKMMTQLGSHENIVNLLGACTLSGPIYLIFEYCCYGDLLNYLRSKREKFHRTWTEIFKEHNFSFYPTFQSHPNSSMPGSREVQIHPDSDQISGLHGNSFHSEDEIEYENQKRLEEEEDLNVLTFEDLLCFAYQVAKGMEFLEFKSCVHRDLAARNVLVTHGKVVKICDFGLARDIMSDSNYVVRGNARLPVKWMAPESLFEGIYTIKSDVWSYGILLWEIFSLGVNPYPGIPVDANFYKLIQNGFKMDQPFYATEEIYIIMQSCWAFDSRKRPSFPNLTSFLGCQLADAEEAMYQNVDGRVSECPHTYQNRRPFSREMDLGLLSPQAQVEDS
# [15] = Solubility of compound in FeSSIF at pH 5.5; format: physicochemical
smiles,measurement,setting,value
COc1ccn2c(-c3cc(NCc4ccc(-c5cnn(C)c5)cc4)ncn3)cnc2c1,microsomal CLint,[1],< 10 µL/min/mg
same,solubility kinetic at 2 h,[2],< 2 µM
same,microsomal CLint,[3],< 10 µL/min/mg
same,IC50,[4],55 nM
Cn1cc(-c2ccc(CNc3cc(-c4cnc5cc(OCCN6CCn7nncc7C6)ccn45)ncn3)cc2)cn1,logD,[5],2.8
same,hepatocyte CLint,[6],< 4 µL/min/1e6 cells
same,solubility,[7],10 µg/mL
same,"inhibition at 5 min, 10 µM",[8],-8%
same,"efflux ratio at 2 h, 1 µM",[9],18
same,IC50,[4],76 nM
same,pKa,[10],5.8
same,"Papp at 2 h, 1 µM",[11],7.6 ×10⁻⁶ cm/s
Cn1cc(-c2ccc(CNc3cc(-c4cnc5cc(OCCN6CCC(C)(C#N)CC6)ccn45)ncn3)cc2)cn1,logD,[5],4.4
same,hepatocyte CLint,[6],16 µL/min/1e6 cells
same,solubility,[7],16 µg/mL
same,"inhibition at 5 min, 10 µM",[8],-15%
same,"efflux ratio at 2 h, 1 µM",[9],4.7
same,IC50,[4],93 nM
same,pKa,[10],6.9
same,"Papp at 2 h, 1 µM",[11],3.1 ×10⁻⁶ cm/s
c1ccn2c(-c3nccc(NCC4CCN(C5CCCC5)CC4)n3)cnc2c1,IC50,[12],> 10000 nM
same,microsomal CLint,[1],10 µL/min/mg
same,microsomal CLint,[3],> 75 µL/min/mg
CN1CC(COc2ccn3c(-c4cc(NCc5ccc(-c6cnn(C)c6)cc5)ncn4)cnc3c2)C1,logD,[5],1.9
same,hepatocyte CLint,[6],4 µL/min/1e6 cells
same,solubility,[7],97 µg/mL
same,"inhibition at 5 min, 10 µM",[8],-59%
same,"efflux ratio at 2 h, 1 µM",[9],57
same,IC50,[4],61 nM
same,pKa,[10],9.5
same,"Papp at 2 h, 1 µM",[11],5.7 ×10⁻⁶ cm/s
COCCOc1ccn2c(-c3cc(NCc4ccc(-c5cnn(C)c5)cc4)ncn3)cnc2c1,logD,[5],3.8
same,solubility,[13],890 µg/mL
same,hepatocyte CLint,[6],18 µL/min/1e6 cells
same,solubility,[7],2 µg/mL
same,inhibition,[14],Active
same,microsomal CLint,[1],10 µL/min/mg
same,solubility,[15],13 µg/mL
same,solubility kinetic at 2 h,[2],< 2 µM
same,"inhibition at 5 min, 10 µM",[8],1%
same,"efflux ratio at 2 h, 1 µM",[9],0.9
same,microsomal CLint,[3],> 75 µL/min/mg
same,IC50,[4],48 nM
same,"Papp at 2 h, 1 µM",[11],12 ×10⁻⁶ cm/s
c1ccc(-c2ccc(CNc3ccnc(-c4cnc5ccccn45)n3)cc2)cc1,IC50,[12],15 nM
same,microsomal CLint,[1],10 µL/min/mg
same,solubility kinetic at 2 h,[2],< 3 µM
same,microsomal CLint,[3],10 µL/min/mg
same,IC50,[4],340 nM
COc1ccn2c(-c3cc(NCc4ccc(-c5cnn(C)n5)cc4)ncn3)cnc2c1,logD,[5],4
same,hepatocyte CLint,[6],8 µL/min/1e6 cells
same,solubility,[7],4 µg/mL
same,"efflux ratio at 2 h, 1 µM",[9],0.7
same,IC50,[4],78 nM
same,"Papp at 2 h, 1 µM",[11],9.5 ×10⁻⁶ cm/s
Cc1nc(-c2ccc(CNc3cc(-c4cnc5cc(OCCN6CCC(=O)N(C)CC6)ccn45)ncn3)cc2)co1,logD,[5],3.2
same,hepatocyte CLint,[6],6 µL/min/1e6 cells
same,solubility,[7],10 µg/mL
same,"inhibition at 5 min, 10 µM",[8],-7%
same,"efflux ratio at 2 h, 1 µM",[9],7.5
same,IC50,[4],54 nM
same,pKa,[10],6.3
same,"Papp at 2 h, 1 µM",[11],7.6 ×10⁻⁶ cm/s
c1ccc2ncc(CNc3cncc(-c4cnc5ccccn45)c3)cc2c1,IC50,[12],> 10000 nM
same,microsomal CLint,[1],10 µL/min/mg
same,microsomal CLint,[3],10 µL/min/mg
COCCOc1ccn2c(-c3cncc(NCc4ccc(N5CCCC5)nc4)c3)cnc2c1,IC50,[12],12 nM
same,microsomal CLint,[1],> 75 µL/min/mg
same,solubility kinetic at 2 h,[2],9 µM
same,microsomal CLint,[3],> 75 µL/min/mg
same,IC50,[4],110 nM
Cn1cc(-c2ccc(CNc3cc(-c4cnc5cc(OCCN6CCCC6)ccn45)ncn3)cc2)cn1,logD,[5],2.9
same,hepatocyte CLint,[6],18 µL/min/1e6 cells
same,"inhibition at 5 min, 10 µM",[8],-78%
same,"efflux ratio at 2 h, 1 µM",[9],5.4
same,IC50,[4],70 nM
same,pKa,[10],9.1
same,"Papp at 2 h, 1 µM",[11],12 ×10⁻⁶ cm/s
COc1ccn2c(-c3cncc(NCc4ccc(N5CCCC5)nc4)c3)cnc2c1,IC50,[12],13 nM
same,microsomal CLint,[1],> 75 µL/min/mg
same,solubility kinetic at 2 h,[2],81 µM
same,microsomal CLint,[3],> 75 µL/min/mg
same,IC50,[4],300 nM
Cn1cc(-c2ccc(CNc3cc(-c4cnc5cc(OCCCN6CCC(C)(F)CC6)ccn45)ncn3)cc2)cn1,logD,[5],4.3
same,hepatocyte CLint,[6],10 µL/min/1e6 cells
same,solubility,[7],2 µg/mL
same,"inhibition at 5 min, 10 µM",[8],-4%
same,"efflux ratio at 2 h, 1 µM",[9],1.3
same,IC50,[4],73 nM
same,pKa,[10],8.3
same,"Papp at 2 h, 1 µM",[11],1.8 ×10⁻⁶ cm/s
CC(Nc1cncc(-c2cnc3ccccn23)c1)c1ccc(N2CCCC2)nc1 (centres undefined),IC50,[12],83 nM
same,microsomal CLint,[1],> 75 µL/min/mg
same,solubility kinetic at 2 h,[2],124 µM
same,microsomal CLint,[3],> 75 µL/min/mg
same,IC50,[4],2600 nM
c1ccn2c(-c3cc(NCc4ccc(N5CCCC5)nc4)ncn3)cnc2c1,microsomal CLint,[1],10 µL/min/mg
same,solubility kinetic at 2 h,[2],< 3 µM
same,microsomal CLint,[3],> 75 µL/min/mg
same,IC50,[4],429 nM
c1ccn2c(-c3cncc(NCc4ccc(N5CCCC5)nc4)c3)cnc2c1,IC50,[12],12 nM
same,microsomal CLint,[1],> 75 µL/min/mg
same,solubility kinetic at 2 h,[2],101 µM
same,"inhibition at 5 min, 10 µM",[8],90%
same,microsomal CLint,[3],> 75 µL/min/mg
same,IC50,[4],720 nM
c1ccn2c(-c3nccc(NCc4ccc(N5CCCC5)cc4)n3)cnc2c1,IC50,[12],5.6 nM
same,solubility kinetic at 2 h,[2],7 µM
same,IC50,[4],680 nM
Cn1cc(-c2ccc(CNc3cc(-c4cnc5cc(OCCO)ccn45)ncn3)cc2)cn1,logD,[5],3
same,hepatocyte CLint,[6],9 µL/min/1e6 cells
same,solubility,[7],13 µg/mL
same,"inhibition at 5 min, 10 µM",[8],-23%
same,"efflux ratio at 2 h, 1 µM",[9],5
same,IC50,[4],75 nM
same,"Papp at 2 h, 1 µM",[11],21 ×10⁻⁶ cm/s
CN(C)CCCOc1ccn2c(-c3cc(NCc4ccc(-c5cnn(C)c5)cc4)ncn3)cnc2c1,logD,[5],2.5
same,"inhibition at 5 min, 10 µM",[8],-86%
same,IC50,[4],43 nM
CN(Cc1ccc(N2CCCC2)nc1)c1cncc(-c2cnc3ccccn23)c1,IC50,[12],240 nM
same,solubility kinetic at 2 h,[2],8 µM
COc1ccn2c(-c3cc(NCc4ccc(-c5ccccc5)cc4)ncn3)cnc2c1,IC50,[12],4.6 nM
same,microsomal CLint,[1],10 µL/min/mg
same,solubility kinetic at 2 h,[2],< 2 µM
same,microsomal CLint,[3],< 10 µL/min/mg
same,IC50,[4],160 nM
CN1CCN(CCOc2ccn3c(-c4cncc(NCc5ccc(N6CCCC6)nc5)c4)cnc3c2)CC1,IC50,[12],11 nM
same,microsomal CLint,[1],10 µL/min/mg
same,solubility kinetic at 2 h,[2],100 µM
same,microsomal CLint,[3],> 75 µL/min/mg
same,IC50,[4],290 nM
COCCOc1ccn2c(-c3cc(NCc4ccc(-c5cnn(C)n5)cc4)ncn3)cnc2c1,logD,[5],3
same,hepatocyte CLint,[6],4 µL/min/1e6 cells
same,"efflux ratio at 2 h, 1 µM",[9],0.8
same,IC50,[4],46 nM
same,"Papp at 2 h, 1 µM",[11],6.4 ×10⁻⁶ cm/s
Cn1cc(-c2ccc(CNc3cc(-c4cnc5cc(OCCCNC6COC6)ccn45)ncn3)cc2)cn1,logD,[5],1.5
same,hepatocyte CLint,[6],10 µL/min/1e6 cells
same,solubility,[7],16 µg/mL
same,"inhibition at 5 min, 10 µM",[8],-19%
same,"efflux ratio at 2 h, 1 µM",[9],15
same,IC50,[4],56 nM
same,pKa,[10],7.3
same,"Papp at 2 h, 1 µM",[11],9.5 ×10⁻⁶ cm/s
